Assay results: paper PMC3322948, “Phase I first-in-human study of TAK-285, a novel investigational dual HER2/EGFR inhibitor, in cancer patients” (British Journal of Cancer, 2012)

Tests used:
[1] = test system: circulating tumour cells; assay: Circulating tumour cell enumeration (CellSearch); assay type: in vivo, human (Japanese patients)
Procedure: At screening and on day 15 after the start of repeated administration, 20 ml of peripheral blood was obtained and divided into two 10 ml exclusive use containers (CellSave tubes) filled with 300 μl of preservative solution (4.6% Na-ethylenediaminetetraacetate, 36% cell preservative, 0.36% polyethylene glycol and 0.4% inert ingredients). The samples were stored at room temperature and processed within 72 h after sampling. The CellSearch System (Veridex LLC, Raritan, NJ, USA) was used for the isolation and enumeration of circulating tumour cells (CTCs), which were defined as nucleated cells lacking cluster of differentiation 45 and expressing cytokeratin.

[2] = test system: HER2- or EGFR-overexpressing human tumour xenografts such as BT-474, 4-1 ST and A431; set-up: method as in Iwahara et al, 2008; details: orally administered; ref Iwahara et al, 2008; cited from earlier work
[3] = Phase I safety, DLT and MTD in patients with solid tumours; assay type: in vivo
Description: This was a phase I, multicentre, open-label study, conducted to investigate the safety, pharmacokinetics (PKs), and determine the maximum tolerated dose (MTD) of oral TAK-285 in patients with solid tumours. Two cohorts were planned for this study: a dose escalation cohort and a repeated administration cohort. In the dose escalation cohort, patients received a single oral dose of TAK-285, followed by 2–6 days of observation without treatment, followed by treatment with the same dose if the safety was confirmed. In this cohort, patients received TAK-285 […]. One cycle was 4 weeks, consisting of 3 weeks of treatment and 1 week of observation without treatment. TAK-285 was given once daily (q.d.) or twice daily (b.i.d.). The dose was escalated from a starting dose of 50 mg until the MTD was determined. In the repeated administration cohort, patients were treated with oral TAK-285 at the MTD for at least 4 weeks in order to confirm safety.
In the dose escalation cohort, the dose of TAK-285 was decided by consideration of adverse events (AEs) observed during the first cycle. […] Dose escalation was continued until the MTD was determined. The dose of TAK-285 was increased by 100 or 40% in accordance with accelerated titration designs reported previously ([Simon et al, 1997]). A DLT was defined as any TAK-285-related grade 4 haematological toxicity, grade 3 or worse non-haematological toxicity, grade 3 or worse neutropenia (<1000 mm^–3) with fever of 38 °C or higher, or toxicity resulting in cessation of treatment for >21 consecutive days (including the stipulated period of observation without treatment).
Safety evaluations included vital signs (oxygen saturation, body temperature, breathing rate, blood pressure and pulse), clinical laboratory tests, lung function tests (pulmonary surfactant protein-A, pulmonary surfactant protein-D, Krebs von den Lunge-6 and arterial blood gas analysis), chest X-ray, and 12-lead electrocardiogram (ECG). These tests were performed weekly with the exception of chest X-rays (every 4 weeks), arterial blood gas analysis (at screening) and ECG (4 time points each at screening, on day 1 and day 8, after DLT assessment, one time point every 4 weeks). All ECG charts were submitted to the ECG evaluation committee to assess cardiac function. Adverse events were graded based on the National Cancer Institute Common Toxicity Criteria for Adverse Events, version 3.0 (Bethesda, MD, USA).

[4] = test system: HER2; details: biochemical; ref Aertgeerts et al, 2011; read-out: 50% inhibition concentration, HER2 phosphorylation; cited from earlier work
[5] = set-up: method as in Shell et al, 2008; details: non-clinical; ref Shell et al, 2008; cited from earlier work
[6] = test system: EGFR; details: biochemical; ref Aertgeerts et al, 2011; read-out: 50% inhibition concentration, EGFR phosphorylation; cited from earlier work

CC(C)(O)CC(=O)NCCn1ccc2ncnc(Nc3ccc(Oc4cccc(C(F)(F)F)c4)c(Cl)c3)c21 [TAK-285]
circulating tumour cell (CTC) changes after treatment ([1]; screening versus cycle 1 day 15): did not show significant changes
patients with unfavourable baseline CTC count converted to favourable ([1]; seven patients with ⩾5 cells per 7.5 ml blood at baseline): none
xenograft growth [2]: effectively inhibited xenograft growth
patients who died during the study ([3]; cause considered unrelated to TAK-285): Two
Alanine aminotransferase increased ⩾Grade 3, number of patients ([3]; human, in vivo): 4
Alanine aminotransferase increased, incidence ([3]; human, in vivo): 46.2%
Alanine aminotransferase increased, number of patients ([3]; human, in vivo): 12
Any adverse events ⩾Grade 3, number of patients ([3]; human, in vivo): 12
Any adverse events, incidence ([3]; human, in vivo): 100.0%
Any adverse events, number of patients ([3]; human, in vivo): 26
Aspartate aminotransferase increased ⩾Grade 3, number of patients ([3]; human, in vivo): 3
Aspartate aminotransferase increased, incidence ([3]; human, in vivo): 46.2%
Aspartate aminotransferase increased, number of patients ([3]; human, in vivo): 12
Blood alkaline phosphatase increased ⩾Grade 3, number of patients ([3]; human, in vivo): 0
Blood alkaline phosphatase increased, incidence ([3]; human, in vivo): 19.2%
Blood alkaline phosphatase increased, number of patients ([3]; human, in vivo): 5
Blood bilirubin increased ⩾Grade 3, number of patients ([3]; human, in vivo): 1
Blood bilirubin increased, incidence ([3]; human, in vivo): 34.6%
Blood bilirubin increased, number of patients ([3]; human, in vivo): 9
Blood creatinine increased ⩾Grade 3, number of patients ([3]; human, in vivo): 0
Blood creatinine increased, incidence ([3]; human, in vivo): 11.5%
Blood creatinine increased, number of patients ([3]; human, in vivo): 3
Blood lactate dehydrogenase increased ⩾Grade 3, number of patients ([3]; human, in vivo): 1
Blood lactate dehydrogenase increased, incidence ([3]; human, in vivo): 19.2%
Blood lactate dehydrogenase increased, number of patients ([3]; human, in vivo): 5
Cancer pain ⩾Grade 3, number of patients ([3]; human, in vivo): 1
Cancer pain, incidence ([3]; human, in vivo): 19.2%
Cancer pain, number of patients ([3]; human, in vivo): 5
Constipation ⩾Grade 3, number of patients ([3]; human, in vivo): 0
Constipation, incidence ([3]; human, in vivo): 26.9%
Constipation, number of patients ([3]; human, in vivo): 7
Decreased appetite ⩾Grade 3, number of patients ([3]; human, in vivo): 2
Decreased appetite, incidence ([3]; human, in vivo): 23.1%
Decreased appetite, number of patients ([3]; human, in vivo): 6
Diarrhoea ⩾Grade 3, number of patients ([3]; human, in vivo): 0
Diarrhoea, incidence ([3]; human, in vivo): 34.6%
Diarrhoea, number of patients ([3]; human, in vivo): 9
Dry skin ⩾Grade 3, number of patients ([3]; human, in vivo): 0
Dry skin, incidence ([3]; human, in vivo): 15.4%
Dry skin, number of patients ([3]; human, in vivo): 4
Gamma-glutamyltransferase increased ⩾Grade 3, number of patients ([3]; human, in vivo): 4
Gamma-glutamyltransferase increased, incidence ([3]; human, in vivo): 26.9%
Gamma-glutamyltransferase increased, number of patients ([3]; human, in vivo): 7
Haemoglobin decreased ⩾Grade 3, number of patients ([3]; human, in vivo): 1
Haemoglobin decreased, incidence ([3]; human, in vivo): 11.5%
Haemoglobin decreased, number of patients ([3]; human, in vivo): 3
Nausea ⩾Grade 3, number of patients ([3]; human, in vivo): 0
Nausea, incidence ([3]; human, in vivo): 19.2%
Nausea, number of patients ([3]; human, in vivo): 5
Pyrexia ⩾Grade 3, number of patients ([3]; human, in vivo): 0
Pyrexia, incidence ([3]; human, in vivo): 23.1%
Pyrexia, number of patients ([3]; human, in vivo): 6
Rash ⩾Grade 3, number of patients ([3]; human, in vivo): 0
Rash, incidence ([3]; human, in vivo): 42.3%
Rash, number of patients ([3]; human, in vivo): 11
Stomatitis ⩾Grade 3, number of patients ([3]; human, in vivo): 0
Stomatitis, incidence ([3]; human, in vivo): 11.5%
Stomatitis, number of patients ([3]; human, in vivo): 3
Vomiting ⩾Grade 3, number of patients ([3]; human, in vivo): 0
Vomiting, incidence ([3]; human, in vivo): 15.4%
Vomiting, number of patients ([3]; human, in vivo): 4
grade 4 AEs related to TAK-285 ([3]; human, in vivo): no grade 4 AEs
grade of diarrhoea ([3]; human, in vivo): ≤ 2 grade
grade of rash ([3]; human, in vivo): ≤ 2 grade
lung function tests, chest X-rays, vital signs or ECGs ([3]; human, in vivo): No clinically significant changes
patients with AEs considered related to TAK-285, number ([3]; human, in vivo): 22
patients with AEs considered related to TAK-285, percent ([3]; human, in vivo): 84.6%
patients with dose-limiting toxicities ([3]; human, in vivo): two
pneumonitis ([3]; human, in vivo): not reported
related AEs grade 2, number of patients ([3]; human, in vivo): 11
related AEs grade 2, percent of patients ([3]; human, in vivo): 42.3%
related AEs grade 2 or lower, number of patients ([3]; human, in vivo): 17
related AEs grade 2 or lower, percent of patients ([3]; human, in vivo): 65.4%
related AEs grade 3, number of patients ([3]; human, in vivo): 5
related AEs grade 3, percent of patients ([3]; human, in vivo): 19.2%
maximum tolerated dose (MTD) ([3]; oral, patients with solid tumours): 300 mg b.i.d.
IC50 [4]: 17 nM
cardiac risks [5]: potentially no exhibition of elevated cardiac risks
